Reference: patent US10144746B2 (GLOBAL BLOOD THERAPEUTICS, INC., priority 2015, dated 2018)

Target: Human plasma kallikrein (Homo sapiens (Human), UniProt P03952)
Test: In vitro plasma kallikrein inhibition assay (chromogenic substrate D-Pro-Phe-Arg-pNa, absorbance at 405 nm, IC50 determination)
Format: biochemical
Conditions: read-out: KLKB1 pIC50 (converted)
Method: In Vitro Plasma Kallikrein Inhibition Assay
The chromogenic substrate D-Pro-Phe-Arg-pNa, 2HCl (BIOPHEN CS-31(02) from Hyphen BioMed, Neuville-Sur-oise, France) was dissolved in 5 mL deionized water and stored at 4° C. […] All other chemicals were of analytical grade.
A stock solution of 7 μM in 50% glycerol was stored at −20° C.
Enzyme reactions were conducted in “assay buffer” comprised of 20 mM HEPES at pH 7.4, 150 mM NaCl, 0.1% PEG-8000 and 0.01% Triton X-100.
Both enzyme and substrate were diluted in assay buffer.
Plate measurements were conducted using a SPECTROStar Nano reader (BMG Labtech, San Francisco, Calif., USA). […] We used discrete wavelength, precise, kinetic reads of 15 cycles with a 60 sec cycle time.
Determination of IC50 values
The test compound was dissolved in 100% DMSO. The compounds were serially diluted in DMSO in a 7 point dose response. For the assays, 66.5 μL of protease solution (protease in assay buffer) was added per well followed by the addition of 8.5 μL of compound in 100% DMSO. […] After 30 min. incubation at room temperature on an orbital shaker, the reactions were started by the addition of 10 μL substrate solution (in assay buffer, final assay concentration was 600 uM). After the addition of the substrate solution the final DMSO concentration was 10%. The plate was placed again on the shaker for 5 sec, spun at 2000 rpm for 5 sec and read on the spectrophotometer. […] The IC50 value was calculated from the plot of rate vs. inhibitor concentration by a 4 parameter logistic equation: y=A+((B−A)/([…]))
where y is the rate at the inhibitor concentration, x. A is the minimum y value at the highest inhibitor concentration and B is the y value in the absence of inhibitor, C is the IC50 value and D is the slope factor. The curve fitting was conducted with the non-linear regression routine of the analysis software XLfit (IDBS, version 5.3.1).

Chain of Human plasma kallikrein (P03952 391-638): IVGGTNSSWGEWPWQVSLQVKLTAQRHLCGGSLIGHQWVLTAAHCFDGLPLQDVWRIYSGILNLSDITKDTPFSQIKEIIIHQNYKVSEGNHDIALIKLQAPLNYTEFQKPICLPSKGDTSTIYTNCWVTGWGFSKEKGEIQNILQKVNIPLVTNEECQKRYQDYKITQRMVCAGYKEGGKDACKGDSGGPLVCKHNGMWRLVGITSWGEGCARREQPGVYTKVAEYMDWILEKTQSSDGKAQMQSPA
Chain of Human plasma kallikrein (P03952 20-390 partner): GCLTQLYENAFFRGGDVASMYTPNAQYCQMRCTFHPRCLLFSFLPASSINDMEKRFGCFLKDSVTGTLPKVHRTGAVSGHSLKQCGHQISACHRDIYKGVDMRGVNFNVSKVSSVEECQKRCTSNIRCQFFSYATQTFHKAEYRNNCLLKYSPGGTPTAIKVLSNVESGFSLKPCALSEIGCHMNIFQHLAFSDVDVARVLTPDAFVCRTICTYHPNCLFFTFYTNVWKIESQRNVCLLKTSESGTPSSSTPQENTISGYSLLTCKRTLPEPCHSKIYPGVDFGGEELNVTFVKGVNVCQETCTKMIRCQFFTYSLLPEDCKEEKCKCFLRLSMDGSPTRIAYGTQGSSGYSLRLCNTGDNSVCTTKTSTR

Going from `COc1ccc(-n2cnnn2)c(CNC(=O)c2ccc3c(c2)C2OC3c3ccc(-c4ccc(F)cc4F)cc32)c1` (racemic) [Example 127, (±)-12-(2,4-difluorophenyl)-N-{[5-methoxy-2-(1H-1,2,3,4-tetrazol-1-yl)phenyl]methyl}-15-oxatetracyclo[6.6.1.0^2,^7.0^9,1^4] pentadeca-2,4,6,9,11,13-hexaene-4-carboxamide] to `COc1ccc(-n2cnnn2)c(CNC(=O)c2ccc3c(c2)C2OC3c3ccc(-c4ccc(F)cc4F)cc32)c1F` (racemic) [Example 129, (±)-12-(2,4-difluorophenyl)-N-{[2-fluoro-3-methoxy-6-(1H-1,2,3,4-tetrazol-1-yl)phenyl]-methyl}-15-oxatetracyclo [6.6.1.0^2,^7.0^9,1^4]-pentadeca-2,4,6,9,11,13-hexaene-4-carboxamide], the IC50 falls from 977 nM to 234 nM (4.2-fold).

Going from `Cc1cc(N)nc(C)c1CNC(=O)c1ccc2c(c1)C1OC2c2ccc(-c3cccc(S(C)(=O)=O)c3)cc21` (racemic) [Example 128, (±)-N-[(6-amino-2,4-dimethylpyridin-3-yl)-methyl]-12-(3-methanesulfonylphenyl)-15-oxatetracyclo[6.6.1.0^2,^7.0^9,1^4] pentadeca-2,4,6,9,11,13 hexaene-4-carboxamide] to `Cc1cc(N)nc(C)c1CNC(=O)c1ccc2c(c1)C1OC2c2ccc(-n3ccc(=O)cc3)cc21` (racemic) [Example 149, (±)-N-[(6-amino-2,4-dimethylpyridin-3-yl]-methyl]-12-(4-oxo-1,4-dihydropyridin-1-yl)-15-oxatetracyclo[6.6.1.0^2,^7.0^9,1^4] pentadeca-2,4,6,9,11,13-hexaene-4-carboxamide], the IC50 rises from 933 nM to 5890 nM (6.3-fold).

`COc1cc(N)nc(C)c1CNC(=O)c1ccc2c(c1)C1OC2c2ccc(Cn3cc(C)cn3)cc21` (racemic) [Example 132, (±)-N-[(6-amino-4-methoxy-2-methylpyridin-3-yl)methyl]-12-[(4-methyl-1H-pyrazol-1-yl)-methyl]-15-oxatetracyclo[6.6.1.0^2,^7.0^9,1^4]-pentadeca-2,4,6,9,11,13-hexaene-4-carboxamide] and `CCOc1cc(N)nc(C)c1CNC(=O)c1ccc2c(c1)C1OC2c2ccc(Cn3cc(C)cn3)cc21` (racemic) [Example 134, (±)-N-[(6-amino-4-ethoxy-2-methylpyridin-3-yl)methyl]-12-[(4-methyl-1H-pyrazol-1-yl)methyl]-15-oxatetracyclo[6.6.1.0^2,^7.0^9,1^4]-pentadeca-2,4,6,9,11,13-hexaene-4-carboxamide] are the same in IC50: 2 nM for the first, 2 nM for the second.

Going from `CCOc1cc(N)nc(C)c1CNC(=O)c1ccc2c(c1)C1OC2c2ccc(Cn3cccn3)cc21` (racemic) [Example 133, (±)-N-[(6-amino-4-ethoxy-2-methylpyridin-3-yl)methyl]-12-[(1H-pyrazol-1-yl)methyl]-15-oxatetracyclo[6.6.1.0^2,^7.0^9,1^4] pentadeca-2,4,6,9,11,13-hexaene-4-carboxamide] to `Cc1cc(N)nc(C)c1CNC(=O)c1ccc2c(c1)C1OC2c2ccc(Oc3cccnc3)cc21` (racemic) [Example 144, (±)-N-[(6-amino-2,4-dimethylpyridin-3-yl)methyl]-12-(pyridin-3-yloxy)-15-oxatetracyclo[6.6.1.0^2,^7.0^9,1^4] pentadeca-2,4,6,9,11,13-hexaene-4-carboxamide], the IC50 rises from 11 nM to 6310 nM (570-fold).

First: CCc1cc(N)nc(C)c1CNC(=O)c1ccc2c(c1)C1OC2c2ccc(-c3ccc(F)cc3F)cc21 (racemic) [Example 135, (±)-N-[(6-amino-4-ethyl-2-methylpyridin-3-yl)methyl]-12-(2,4-difluorophenyl)-15-oxatetracyclo[6.6.1.0^2,^7.0^9,1^4] pentadeca-2,4,6,9,11,13-hexaene-4-carboxamide]
Second: CCc1cc(N)nc(C)c1CNC(=O)c1ccc2c(c1)C1OC2c2ccc(-c3c(C)cc(F)cc3F)cc21 (racemic) [Example 142, (±)-N-[(6-amino-4-ethyl-2-methylpyridin-3-yl)-methyl]-12-(2,4-difluoro-6-methylphenyl)-15-oxatetracyclo[6.6.1.0^2,^7.0^9,1^4] pentadeca-2,4,6,9,11,13-hexaene-4-carboxamide]
The IC50 of the first is 83-fold lower: 19.5 nM for the first, 1620 nM for the second.

First: CCc1cc(N)nc(C)c1CNC(=O)c1ccc2c(c1)C1OC2c2ccc(-c3ccc(C)cc3C#N)cc21 (racemic) [Example 136, (±)-N-[(6-amino-4-ethyl-2-methylpyridin-3-yl)methyl]-12-(2-cyano-4-methylphenyl)-15-oxatetracyclo[6.6.1.0^2,^7.0^9,1^4] pentadeca-2,4,6,9,11,13-hexaene-4-carboxamide]
Second: Cc1ccc(-c2ccc3c(c2)C2OC3c3ccc(C(=O)NCc4c(C)cc5c(c4C)CNC5)cc32)c(C#N)c1 (racemic) [Example 137, (±)-12-(2-cyano-4-methylphenyl)-N-[(4,6-dimethyl-2,3-dihydro-1H-isoindol-5-yl)methyl]-15-oxatetracyclo[6.6.1.0^2,^7.0^9,1^4] pentadeca-2,4,6,9,11,13-hexaene-4-carboxamide]
The IC50 of the first is 110-fold lower: 3.98 nM for the first, 437 nM for the second.

`Cc1cc(N)nc(C)c1CNC(=O)c1ccc2c(c1)C1OC2c2ccc(-c3c(C)cc(F)cc3F)cc21` (racemic) [Example 141, (±)-N-[(6-amino-2,4-dimethlpyridin-3-yl)-methyl]-12-(2,4-difluoro-6-methylphenyl)-15-oxatetracyclo[6.6.1.0^2,^7.0^9,1^4] pentadeca-2,4,6,9,11,13-hexaene-4-carboxamide] and `Cc1cc(N)nc(C)c1CNC(=O)c1ccc2c(c1)C1OC2c2ccc(-c3c(F)cc(F)cc3Cl)cc21` (racemic) [Example 146, (±)-N-[(6-amino-2,4-dimethylpyridin-3-yl)-methyl]-12-(2-chloro-4,6-difluorophenyl)-15-oxatetracyclo[6.6.1.0^2,^7.0^9,1^4] pentadeca-2,4,6,9,11,13-hexaene-4-carboxamide] are within 1.5-fold of each other in IC50: 105 nM for the first, 148 nM for the second.

`Cc1ccc(-c2ccc3c(c2)C2OC3c3ccc(C(=O)NCc4c(F)cc5c(c4C)CNC5)cc32)c(C#N)c1` (racemic) [Example 143, (±)-12-(2-cyano-4-methylphenyl)-N-[(6-fluoro-4-methyl-2,3-dihydro-1H-isoindol-5-yl)methyl]-15-oxatetracyclo [6.6.1.0^2,^7.0^9,1^4]pentadeca-2,4,6,9,11,13-hexaene-4-carboxamide] and `Cc1cc(CN)cc(C)c1CNC(=O)c1ccc2c(c1)C1OC2c2ccc(-c3ccc(F)cc3F)cc21` (racemic) [Example 147, (±)-N-{[4-(aminomethyl)-2,6-dimethylphenyl]-methyl}-12-(2,4-difluorophenyl)-15-oxatetracyclo[6.6.1.0^2,^7.0^9,1^4] pentadeca-2,4,6,9,11,13-hexaene-4-carboxamide] are within 1.5-fold of each other in IC50: 288 nM for the first, 372 nM for the second.

Compared with `Nc1nccc2c(CNC(=O)c3ccc4c(c3)C3OC4c4ccc(-c5ccc(F)cc5F)cc43)cccc12` (racemic) [Example 148, (±)-N-[(1-aminoisoquinolin-5-yl)methyl]-12-(2,4-difluorophenyl)-15-oxatetracyclo [6.6.1.0^2,^7.0^9,1^4]-pentadeca-2,4,6,9,11,13-hexaene-4-carboxamide], `COc1cc(N)nc(C)c1CNC(=O)c1ccc2c(c1)C1OC2c2ccc(-c3c(C)cc(F)cc3F)cc21` (racemic) [Example 150, (±)-N-[(6-amino-4-methoxy-2-methylpyridin-3-yl)methyl]-12-(2,4-difluoro-6-methylphenyl)-15-oxatetracyclo[6.6.1.0^2,^7.0^9,1^4] pentadeca-2,4,6,9,11,13-hexaene-4-carboxamide] is 2.5-fold lower in IC50: 85.1 nM for the first, 34.7 nM for the second.
